Measured values taken from a melting point compilation (Tetko et al.).

| melting point [°C] | Compound |
| --- | --- |
| 111 | CCOC(=O)c1cc(Cl)c(O)c(Cl)c1 |
| 73 | CCOC(=O)C=Cc1ccc(N)cc1 |
| 119 | N#Cc1ccccc1OCC(O)CNCCNC(=O)Cc1ccc(O)cc1 (stereo not given) |
| 4.7 | c1ccc(N2CCCCC2)cc1 |
| 137 | O=C(C1=NOC2C(=O)N(c3ccc(Cl)cc3)C(=O)C12)c1ccccc1 (stereo not given) |
| 30 | O=C(CCCCl)c1ccc(Cl)cc1 |
| 220 to 222 | NC(=O)c1sc(Nc2ccc(Cl)cc2)nc1N |
| -8 | FC(F)(F)c1ccc(I)cc1 |
| 160 to 166 | N[C@H](CO)[C@H](O)c1ccc([N+](=O)[O-])cc1 |
| 232 | CCOC(=O)NC(=O)Nn1c(S)nnc1C(F)(F)F |
| 19 | CCCCCCCCCCCCCC#N |
| 143 to 144 | CN(C)c1ccc(C2Nn3c(COc4ccccc4)nnc3S2)cc1 (stereo not given) |
| 167 | CCOC(=O)/C(C#N)=C/c1ccc(-c2ccc(Br)cc2)o1 |
| 194 | O=C(O)c1cccc(Cl)n1 |
| 104 | O=C(O)c1ccccc1-n1cccc1 |
| -28 | NCCNCCO |
| 72 | CCOC(=O)CC(=O)c1ccc([N+](=O)[O-])cc1 |
| 142 to 144 | O=C(O)CCC(=O)CCC(=O)O |
| 141 | NC(=O)c1c(F)cccc1Cl |
| 157 | CN(C)c1ccn2c(=O)c3ccccc3cc2c1 |
| 266 | COc1cc(O)c2c(=O)c3cc(O)ccc3oc2c1 |
| 50 to 51 | Nc1c(C(F)(F)F)cc(Cl)nc1Cl |
| 20 | CCC(=O)Oc1ccccc1 |

| melting point [°C] | Compound |
| --- | --- |
| 42 | Cc1ccc(C(C)CCC(=O)O)cc1 (stereo not given) |
| 118 to 119 | COc1ccc(-c2ccc(C=O)s2)cc1 |
| 152 to 155 | Cc1nc([N+](=O)[O-])c(Br)n1CCC#N |
| 31 | Cc1ccc2cc[nH]c2c1 |
| 124 to 126 | Nc1ccc(Cn2cncn2)cc1 |
| 219 to 224 | COC(=O)c1ccc2c(C=O)c[nH]c2c1 |
| 86 | Cc1sc(-c2ccccn2)nc1-c1ccccc1 |
| 233 to 235 | Cc1cc(C(F)(F)F)c(C#N)c(=O)[nH]1 |
| 240 | Clc1nc(Cl)nc(Oc2cc(Oc3nc(Cl)nc(Cl)n3)cc(Oc3nc(Cl)nc(Cl)n3)c2)n1 |
| 106 to 110 | O=[N+]([O-])c1cccc2nsnc12 |
| 68 to 70 | CC(=O)c1ccc(CCc2ccccc2)cc1 |
| 114 | N#CCC(=O)NN |
| 62 | CC(C)(C)Oc1ncc(Br)cn1 |
| 280 | FC(F)(F)c1cc(-c2n[nH]c(=S)[nH]2)cc(C(F)(F)F)c1 |
| 188 | CC12CCC(C(O)=C/C1=N\Nc1ccccc1)C2(C)C (stereo not given) |
| 256 | CC(=O)N1C(=O)/C(=C/c2ccccc2)c2cc3c(cc21)N(C(C)=O)C(=O)/C3=C/c1ccccc1 |
| 214 | CCOC(=O)c1cc(C)[nH]c(=S)c1C#N |
| 134 | Nc1ccc(-c2ccc(Cl)cc2)cc1 |
| 88 | COc1cc2c(cc1C)C(=O)C2 |
| 93 to 97 | O=C(Oc1ccccc1)c1ccc2ccccc2c1O |
| 28.5 | CC(=O)c1ccccc1[N+](=O)[O-] |
| 166 | O=C(O)CC(CC(=O)O)c1ccc(Cl)cc1 |
| 195 | COc1cc(C=CC(=O)O)ccc1OC(C)=O |

| melting point [°C] | Compound |
| --- | --- |
| 117 | NS(=O)(=O)c1ccc(Cl)s1 |
| 58 | O=C1OC(OC(=O)C(F)(F)F)c2ccccc21 (stereo not given) |
| 160 | O=C(Cn1c(=O)sc2ccc(Cl)cc21)N1CCN(CCO)CC1 |
| 79.2 | CCOC(=O)Cn1c(=O)sc2cccc(Cl)c21 |
| 127 to 132 | COc1ccc(C2(C(=O)O)CC2)cc1 |
| 235 to 238 | O=[N+]([O-])c1ccccc1-c1nc(-c2ccccc2)c(-c2ccccc2)[nH]1 |
| 21.7 | Cc1ccccc1Oc1ccccc1 |
| 240 | COc1cc(O)c2c(=O)c(-c3ccc(O)cc3)coc2c1 |
| 100 | Fc1ncccc1-c1ccc(Cl)cn1 |
| 220 to 223 | NC(=O)c1ccc(C(F)(F)F)nc1O |
| 103 to 105 | CCC1C(C=NC(C)(C)C)=NC(C)(C)N1O (stereo not given) |
| 136 | Cc1ccc(O)c(N)c1 |
| 33 to 36 | CNc1ccc(OC)cc1 |
| 128 | c1ccc2c(c1)Cc1ccccc1S2 |
| 241 to 243 | CN1CCN=C1C(C1=NCCN1C)C1=NCCN1C |
| 173 to 175 | NNC(=O)c1ccc(I)cc1 |
| 141 | Clc1cc2c(Cl)cccc2c(Cl)c1Cl |
| 156 | Cc1ccc2c(c1C)CCC1C2CCC2CCCCC21C (stereo not given) |
| 234 | N#Cc1c(C(F)(F)F)cc(-c2cccs2)n(N)c1=O |
| 44 to 47 | CSc1cnccn1 |
| 187 | CCOC(=O)c1sc2sc(C(=O)OCC)c(C)c2c1C |
| 172 | CC(=O)Nc1ccc2c(c1)CCC2=O |
| 115 to 118 | O=Cc1cc(C#Cc2ccccc2)cs1 |

| melting point [°C] | Compound |
| --- | --- |
| 114 to 115 | Cn1nc(O)cc1C(F)(F)F |
| 233 | Cc1nc(N)nc2c1c(=O)n(-c1ccccc1)c1ccccc21 |
| 1.6 | CCCCCCCCCCCCCOCC1CO1 (stereo not given) |
| 96 to 100 | CC(=O)OC[C@H]1O[C@@H](OCc2ccccc2)[C@H](OC(C)=O)[C@@H](OC(C)=O)[C@@H]1OC(C)=O |
| 73 | Cc1c2c(c(CCl)c3c1CC3)CC2 |
| -10 | C=CCOCC(CC)(CO)CO |
| 154 | Cc1cc([N+](=O)[O-])ccc1C(=O)O |
| 193 to 196 | CC(=O)N1CCSC1C(=O)NN (stereo not given) |
| 206 | O=C1COc2cccnc2N1 |
| 178 | CCCCOc1c(-c2nnc(-c3ccc(Cl)cc3)o2)sc(-c2nnc(-c3ccc(Cl)cc3)o2)c1OCCCC |
| 76 to 78 | O=C(O)CCCc1ccc2c(c1)OCCO2 |
| 225 to 227 | CC(C)[C@@H](O)[C@H](N)C(=O)O |
| 88.5 | CCOC(=O)Cc1cccc2ccccc12 |
| 221 | CCOC(=O)c1nn(-c2ccc(C)cc2)c(C)c1C(=O)C1=NOC2C(=O)N(c3ccc(OC)cc3)C(=O)C12 (stereo not given) |
| 190 | Oc1ccc(C2COc3cc(O)ccc3C2)cc1 (stereo not given) |
| 210 | Nc1nn(-c2ccccc2)c2nc3ccccc3nc12 |
| 307 to 309 | CCCOc1c2cccc1Cc1cc(Br)cc(c1O)Cc1cccc(c1OCCC)Cc1cc(Br)cc(c1O)C2 |
| -48 | Fc1cc(F)c(F)c(F)c1 |
| 172 | CNC1CCC2(C)C(CCC3C2CCC2(C)C3CCC2C(C)N(C)C)C1 (stereo not given) |
| 212 | CCOC(=O)c1cc2c(=O)oc3ccccc3c2n(Cc2ccccc2)c1=O |
| 212 to 214 | COc1ccccc1N1CCN(C(=O)c2ccc(N)cc2)CC1 |
| 46 to 48 | Cc1noc(C)c1C#N |
| 64 to 65 | CCOC(=O)OC(=O)C1=CC(C)(C)N(O)C1(C)C |

| melting point [°C] | Compound |
| --- | --- |
| 152 | CC(=O)N(C)c1cccc(N(C)C(C)=O)c1 |
| 190 to 192 | Nc1ccc(Cl)cc1C(=O)c1cccc(O)c1 |
| 133 to 135 | O=Cc1ccc(-c2ccc(-c3cccs3)s2)s1 |
| 169 | CCOC(=O)c1nn(-c2ccc(C)cc2)c(C)c1C(=O)c1noc(-c2ccccc2)c1S(=O)(=O)c1ccccc1 |
| 187 | O=C(C(C(=O)N1CCOCC1)c1ccccc1)N1CCOCC1 |
| 66 to 67 | COC(=O)c1cc2ccccc2n1C(=O)OC(C)(C)C |
| 221 | NC(=O)c1ccccc1OCC(=O)O |
| 260 | O=c1c(C=Cc2nc3ccccc3[nH]2)coc2ccccc12 |
| -46.2 | CCCCCCCC(=O)OCCC |
| 148 | CN(C)c1ccc(N=c2cc(-c3ccccc3)oc(-c3ccccc3)c2)cc1 |
| 63 to 64 | Cc1c(Cl)cc([N+](=O)[O-])cc1Cl |
| 310 to 312 | FC(F)(F)c1cc(Cl)c2nc(S)[nH]c2c1 |
| 37 to 38 | Cc1ccc(OCCBr)cc1 |
| 10 | CCCCCCC(=O)CCCCC |
| 117 | O=C(c1ccc(O)cc1)c1ccccc1F |
| 116 | NC(=O)c1cccc(F)c1F |
| 128 | CC(Br)C(Br)c1nc(O)n(-c2ccccc2)n1 (stereo not given) |
| 71 | Cc1ccc(C(O)c2ccc(C)cc2)cc1 |
| 85 | CC(=O)CC(=O)c1cccnc1 |
| 127 to 129 | COC(=O)c1cc2ccsc2[nH]1 |
| -18.1 | CC(=O)c1cc(C)ccc1C |

| Compound | melting point [°C] |
| --- | --- |
| CC(N)C(C)(C)C (stereo not given) | -20 |
| O=[N+]([O-])c1ccc(N2CCCNCC2)nc1 | 111 to 112 |
| COc1ccccc1-c1ccc(C=C2C(=O)NC(=S)NC2=O)o1 | 235 |
| CC(NC(C)(C)C)C(=O)c1cccc(Cl)c1 (stereo not given) | 234 |
| CC=C(C)C(=O)OC1CCN2CC=C(COC(=O)C(O)(C(C)OC)C(C)(C)O)C12 (stereo not given) | 97 |
| CC(C)CC(=O)C1C(=O)c2ccccc2C1=O | 68.5 |
| O=S(=O)(F)Cc1ccccc1 | 93 |
| c1cc(OCC2CO2)cc(OCC2CO2)c1 (stereo not given) | 42.5 |
| CC=Cc1ccc2c(c1)OCO2 | 8.2 |
| C=CCl | -154 |
| FC(F)=C(Cl)Cl | -116 |
| CC(=O)OC(c1ccccc1)C(Cl)(Cl)Cl (stereo not given) | 87.5 |
| Cc1ccc2cc3ccccc3cc2c1 | 209 |
| COc1cc2c(c3oc(=O)c4c(c13)CCOC4=O)C1C=COC1O2 (stereo not given) | 245 |
| CCN(CC)CCc1c[nH]c2ccccc12 | 170 |
| CNC(=O)N(C)c1nc2ccccc2s1 | 120 |
| CN(C)CCO | -59 |
